The target in assay [1] is T1, human calcitonin-2 receptor (hCT2R) (Homo sapiens, UniProt P30988).
T1 construct: expressed in transfected cells; host or cells: Chinese hamster ovary (CHO) cells co-transfected with a 6CRE-luciferase reporter; receptor cDNA cloned from the MCF7 cell line
T1 sequence (P30988 25-474): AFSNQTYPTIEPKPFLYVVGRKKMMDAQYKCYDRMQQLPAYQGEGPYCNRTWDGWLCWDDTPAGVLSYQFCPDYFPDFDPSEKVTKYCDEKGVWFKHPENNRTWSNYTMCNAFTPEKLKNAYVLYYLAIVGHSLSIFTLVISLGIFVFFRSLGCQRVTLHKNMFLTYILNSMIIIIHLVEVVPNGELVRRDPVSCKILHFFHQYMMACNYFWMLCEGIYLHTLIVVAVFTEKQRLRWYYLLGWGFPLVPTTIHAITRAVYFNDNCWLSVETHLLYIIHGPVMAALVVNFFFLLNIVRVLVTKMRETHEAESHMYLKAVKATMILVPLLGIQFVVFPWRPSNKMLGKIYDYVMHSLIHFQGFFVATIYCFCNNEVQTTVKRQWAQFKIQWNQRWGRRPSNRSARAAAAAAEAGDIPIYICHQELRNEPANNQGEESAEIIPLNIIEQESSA
The assay is described as follows: HCT2R CRE-luc reporter assay. The note with it: agonist activity; CHO-6CRE-luciferase cells co-transfected with hCT2R. The assay is classed as cell-based.

The subject of the next assay is Human osteoclasts. The assay is described as follows: Human osteoclast assay in vitro (bone resorption). The assay is classed as cell-based. Further details: key: Active: Human osteoclast: Significant inhibition of bone resorption in the absence of toxicity, relative to vehicle-treated controls. To be noted: inhibition of bone resorption on cortical bone slices, 3 to 7 days. As for the experimental part:
Human osteoclasts were differentiated from peripheral blood cells using methods adapted from published protocols [Journal of Experimental Medicine 188(5):997–1001, 1998. TRANCE is necessary and sufficient for osteoblast-mediated activation of bone resorption in osteoclasts. K Fuller, B Wong, S Fox, Y Choi, and T J Chambers]. Human mononuclear cells were incubated on bone slices in M_CSF (30 ng/ml) and RANKL (TRANCE, 30 ng/ml) for 10 days. Differentiated osteoclasts were identified using an osteoclast-specific monoclonal antibody. Osteoclasts with test compounds or vehicle were incubated on cortical bone slices for an additional 3 to 7 days to measure bone resorption. In addition to bone resorption, toxicity and osteoclastogenesis were observed after compound treatments. A positive response was defined as significant inhibition of bone resorption without toxicity.

Another assay relates to neonatal rat calvaria. The assay is described as follows: Rat calvaria assay in vitro (bone resorption). Further details: key: Active: Rat calvaria: Concentration-dependent inhibition of bone resorption with efficacy equivalent to calcitonin 1 ng/ml. It counts as cell-based. The note with it: PTH 10 ng/ml stimulated bone resorption; calcium and deoxypyridinoline in supernatant. Here is the method:
Bone resorption of neonatal rat cavarial chips was measured using methods adapted from published protocols [Ulf H, Lemer Modifications of the Mouse Calvarial Technique Improve the Responsiveness to Stimulators of Bone Resorption. Journal of Bone and Mineral Research Vol 2, No. 5, 1987]. Resorption was measured by quantification of calcium in the supernatant by a calorimetric assay and of deoxypyridinoline in the supernatant by ELISA. Deoxypyridinoline is released as a by product of collagen degradation by the osteoclast
Calvaria were surgically removed from 2–3 day old Wistar rats and placed in a sterile tube containing BGJb media (Fitton-Jackson Modification)—GIBCO BRL with penicillin (10 U/ml)/streptomycin (10 μg/ml). Calvaria were washed twice with fresh media, trimmed of excess tissue, and placed in fresh media. Calvaria were uniformly sectioned and placed in the wells of a tissue culture plate in 1 ml of BGJb/P/S with 1 mg/ml BSA. Calvaria were incubated for 24 hours at 37° C., 5% CO2 before treatments. Media was aspirated and replaced with 1 ml of fresh media containing PTH 10 ng/ml . Unstimulated wells contained media alone. Test compounds or calcitonin (1 ng/ml) were added. Compounds or calcitonin were added again on days 2 and 3, with no medium or PTH additions. Upon completion of the assay, the media was collected and stored at −20° C. until analysis was performed. Calvaria were air-dried for several days, and dry weight was quantified.
Deoxypyridinoline ELISA: Supernatants were evaluated for deoxypyridinoline crosslinks according to kit manufacturer instructions. SoftMax software was used to evaluate ELISA data from a 96-well format to generate a standard curve. Sample values were extrapolated from this standard curve. Extrapolated sample values were imported into a Microsoft Excel to normalize sample values to dried calvarial weight. Data was expressed as nanomolar DPD/mg calvaria.
Calcium analysis: Calcium determinations were made using Arsenazo III reagent from Sigma Diagnostics No. 588. Procedure followed as described by manufacturer in kit instructions. Data was imported from plate reader into Microsoft® Excel® and calcium concentrations were calculated as follows: [Asample/Astandard]×Concentration of standard=mg/dL Calcium
Sample values were normalized to dried calvarial weight and expressed as mg/dL calcium per mg calvaria.

For assay [2], the system named is Thyroid-parathyroidectomized (TPTX) rats. The assay is described as follows: Rat TPTX assay in vivo (PTH-induced elevation of serum calcium). Also noted: key to TPTX rat in vivo: Active: TPTX (Thyroid- parathyroidectomized) rat: Significant inhibition of bone resorption reflected in serum calcium levels relative to PTH + Vehicle controls. To be noted: serum calcium, PTH-infused TPTX rats, vs PTH + Vehicle. From the text:
Thyroid-parathyroidectomized (TPTX) rats were used to determine the effects of compounds on PTH-induced elevation of serum calcium in vivo. The thyroid and parathyroid glands of male CD rats were removed under anesthesia and subcutaneous pumps containing human parathyroid hormone (hPTH 1–34) were implanted two to five days after TPTX. […] PTH was delivered at a rate of 30 micrograms/kg/hour. PTH causes significant elevations of serum calcium in TPTX rats given no other treatments. Rats were treated with vehicle, test compounds at various doses or calcitonin 16 units/kg SC. […] Serurn calcium was measured at baseline and every two hours up to six hours. Averaged group responses at each time point were compared using Analysis of Variance (ANOVA).

Some results are limits rather than exact numbers.

One may read the EC50 as the midpoint of the concentration-response curve. Take `CCOC(=O)c1c(CCc2ccc(C(F)(F)F)cc2)nc2c(c1-c1ccc(C(=O)NCc3ccco3)cc1)C(=O)N1CCC[C@@H]21` [Example 11, Ethyl(9aS)-4-(4-{[(2-furylmethyl)amino]carbonyl}phenyl)-5-oxo-2-{2-[4-(trifluoromethyl)phenyl]ethyl}-7,8,9,9a-tetrahydro-5H-pyrido[2,3-a]pyrrolizine-3-carboxylate]: the EC50 in assay [1] is no more than 10 nM. In addition, the “Human osteoclast in vitro” value with Human osteoclasts is listed as “Active”. The “Rat calvaria in vitro” value with neonatal rat calvaria was “Active”.
Consider `CCOC(=O)c1c(CCc2ccc(C(F)(F)F)cc2)nc2c(c1-c1ccc(C(=O)NCc3cccnc3)o1)C(=O)N1CCC[C@@H]21` [Example 12, Ethyl(9aS)-5-oxo-4-(5-{[(3-pyridinylmethyl)amino]carbonyl}-2-furyl)-2-{2-[4-(trifluoromethyl)phenyl]ethyl}-7,8,9,9a-tetrahydro-5H-pyrido[2,3-a]pyrrolyzine-3-carboxylate], for which the EC50 in assay [1] fell in the range of 10 to 100 nM. In assay [2], the “TPTX rat in vivo” value was “Active”. Also, the “Human osteoclast in vitro” value in the assay on Human osteoclasts is on record as “Active”. In addition, in the assay with neonatal rat calvaria, the “Rat calvaria in vitro” value is listed as “Active”.
